Data: ChEMBL document CHEMBL1155567, “Three new toxic norditerpenoid alkaloids from the low larkspur Delphinium nuttallianum” (J Nat Prod, 2000)

Assay: Toxicity in iv dosed 24 hrs fasted Swiss-Webster mouse
Type: organism-based
Conditions: in vivo
`CCN1C[C@]2(COC(=O)c3ccccc3N3C(=O)C[C@H](C)C3=O)CC[C@H](OC)[C@]34C5C[C@@H]6[C@@H](OC(C)=O)C[C@@](O)(C5[C@H]6OC(C)=O)[C@@](O)([C@H]13)[C@@H](OC)C24` (stereo partly drawn) gave an LD50 of 3.3 mg/kg. Compound `CCN1C[C@]2(COC(=O)c3ccccc3N3C(=O)C[C@H](C)C3=O)CC[C@H](OC)[C@]34C5C[C@@H]6[C@@H](OC(C)=O)C[C@@](O)(C5[C@H]6O)[C@@](O)([C@H]13)[C@@H](OC)C24` (stereo partly drawn) has an LD50 of 5.7 mg/kg. In the case of `CCN1C[C@]2(COC(=O)c3ccccc3N3C(=O)C[C@H](C)C3=O)CC[C@H](OC)[C@]34C5C[C@@H]6[C@@H](OC(C)=O)C[C@@](O)(C5[C@H]6OC)[C@@](O)([C@H]13)[C@@H](OC)C24` (stereo partly drawn) [GEYERLINE], the LD50 is reported as 6.2 mg/kg.
